Measurements: US5733913A, “6-Aryl pyrido[2,3-d] pyrimidines and naphthyridines for inhibiting protein tyrosine kinase mediated cellular proliferation” (priority 1995, dated 1998)

Key:
C-src kinase = molecular target: T1, C-src kinase (Homo sapiens, UniProt P12931); assay: C-src kinase assay; type: biochemical; conditions: for inhibition at 50 µM: read-out: Inhibition of Protein Tyrosine Kinases, C-src, % Inhibition; for IC50: read-out: Inhibition of Protein Tyrosine Kinases, C-src, IC50
T1 construct: made in house; host or cells: baculovirus-infected insect cells
Experimental: (§1) V-src and C-src Kinase Assays
V-src or C-src kinase is purified from baculovirus infected insect cell lysates using an antipeptide monoclonal antibody directed against the N-terminal 2-17 amino acids. The antibody, covalently linked to 0.65-μm latex beads, is added to a suspension of insect cell lysis buffer comprised of 150 mM NaCl, 50 mM Tris pH 7.5, 1 mM DTT, 1% NP-40, 2 mM EGTA, 1 mM sodium vanadate, 1 mM PMSF, 1 μg/mL each of leupeptin, pepstatin, and aprotinin. […] At the end of the lysate incubation, the beads are rinsed 3 times in lysis buffer, resuspended in lysis buffer containing 10% glycerol, and frozen. These latex beads are thawed, rinsed three times in assay buffer which is comprised of 40 mM tris pH 7.5, 5 mM MgCl2, and suspended in the same buffer. In a Millipore 96-well plate with a 0.65 μm polyvinylidine membrane bottom are added the reaction components: 10-μL v-src or c-src beads, 10 μL of 2.5 mg/mL poly GluTyr substrate, 5 μM ATP containing 0.2 μCi labeled ^32 P-ATP, 5μL DMSO containing inhibitors or as a solvent control, and buffer to make the final volume 125 μL. The reaction is started at room temperature by addition of the ATP and quenched 10 minutes later by the addition of 125 μL of 30% TCA, 0.1M sodium pyrophosphate for 5 minutes on ice. The plate is then filtered and the wells washed with two 250-μL aliquots of 15% TCA, 0.1M pyrophosphate. The filters are punched, counted in a liquid scintillation counter, and the data examined for inhibitory activity in comparison to a known inhibitor such as erbstatin. The method is described more fully in J. Med. Chem., 37:598-609 (1994).

[1] = molecular target: T2, mouse PDGF-β receptor tyrosine kinase (Mus musculus, UniProt P05622); assay: PDGF receptor tyrosine kinase assay; type: biochemical; conditions: for IC50: read-out: Inhibition of Protein Tyrosine Kinases, PDGF, IC50; for inhibition at 50 µM: read-out: Inhibition of Protein Tyrosine Kinases, PDGF, % Inhibition
T2 construct: a fragment of DNA that codes for the intracellular tyrosine kinase domain; made in house; host or cells: Sf9 insect cells (baculovirus), cell lysate
From the text: (§2) PDGF and FGF Receptor Tyrosine Kinase Assays
(§3) Full length cDNAs for the mouse PDGF-β and human FGF-1 (flg) receptor tyrosine kinases were obtained from J. Escobedo and prepared as described in J. Biol. Chem., 262:1482-1487 (1991), and PCR primers were designed to amplify a fragment of DNA that codes for the intracellular tyrosine kinase domain. The fragment was melded into a baculovirus vector, cotransfected with AcMNPV DNA, and the recombinant virus isolated. SF9 insect cells were infected with the virus to overexpress the protein, and the cell lysate was used for the assay. […] Briefly, to each well was added 82.5 μL of incubation buffer containing 25 mM Hepes (pH 7.0), 150 mM NaCl, 0.1% Triton X-100, 0.2 mM PMSF, 0.2 mM Na3 VO4, 10 mM MnCl2, and 750 μg/mL of Poly (4:1) glutamate-tyrosine followed by 2.5 μL of inhibitor and 5 μL of enzyme lysate (7.5 μg/μL FGF-TK or 6.0 μg/μL PDGF-TK) to initiate the reaction. Following a 10 minute incubation at 25° C., 10 μL of γ^32 P-ATP (0.4 μCi plus 50 μM ATP) was added to each well and samples were incubated for an additional 10 minutes at 25° C. The reaction was terminated by the addition of 100 μL of 30% trichloroacetic acid (TCA) containing 20 mM sodium pyrophosphate and precipitation of material onto glass fiber filter mats (Wallac). […] Nonspecific activity was defined as radioactivity retained on the filters following incubation of samples with buffer alone (no enzyme). Specific enzymatic activity was defined as total activity (enzyme plus buffer) minus nonspecific activity.

V-src kinase = V-src kinase assay; type: biochemical; conditions: at 50 μM
Experimental: as §1
V-src or C-src kinase is purified from baculovirus infected insect cell lysates using an antipeptide monoclonal antibody directed against the N-terminal 2-17 amino acids. The antibody, covalently linked to 0.65-μm latex beads, is added to a suspension of insect cell lysis buffer comprised of 150 mM NaCl, 50 mM Tris pH 7.5, 1 mM DTT, 1% NP-40, 2 mM EGTA, 1 mM sodium vanadate, 1 mM PMSF, 1 μg/mL each of leupeptin, pepstatin, and aprotinin. Insect cell lysate containing either the c-src or v-src protein is incubated with these beads for 3-4 hours at 4° C. with rotation. At the end of the lysate incubation, the beads are rinsed 3 times in lysis buffer, resuspended in lysis buffer containing 10% glycerol, and frozen. These latex beads are thawed, rinsed three times in assay buffer which is comprised of 40 mM tris pH 7.5, 5 mM MgCl2, and suspended in the same buffer. In a Millipore 96-well plate with a 0.65 μm polyvinylidine membrane bottom are added the reaction components: 10-μL v-src or c-src beads, 10 μL of 2.5 mg/mL poly GluTyr substrate, 5 μM ATP containing 0.2 μCi labeled ^32 P-ATP, 5μL DMSO containing inhibitors or as a solvent control, and buffer to make the final volume 125 μL. The reaction is started at room temperature by addition of the ATP and quenched 10 minutes later by the addition of 125 μL of 30% TCA, 0.1M sodium pyrophosphate for 5 minutes on ice. The plate is then filtered and the wells washed with two 250-μL aliquots of 15% TCA, 0.1M pyrophosphate. The filters are punched, counted in a liquid scintillation counter, and the data examined for inhibitory activity in comparison to a known inhibitor such as erbstatin. The method is described more fully in J. Med. Chem., 37:598-609 (1994).

[2] = molecular target: T3, human FGF-1 (flg) receptor tyrosine kinase (Homo sapiens, UniProt P11362); assay: FGF receptor tyrosine kinase assay; type: biochemical; conditions: for IC50: read-out: Inhibition of Protein Tyrosine Kinases, FGF, IC50; for inhibition at 50 µM: read-out: Inhibition of Protein Tyrosine Kinases, FGF, % Inhibition
T3 construct: a fragment of DNA that codes for the intracellular tyrosine kinase domain; made in house; host or cells: Sf9 insect cells (baculovirus), cell lysate
From the text: as §2, §3

PDGF receptor = PDGF receptor autophosphorylation in RASMC; type: cell-based, rat; conditions: PDGF-BB 30 ng/mL, read-out: Inhibition of PDGF Stimulated Receptor Auto Phosphorylation (IC50)

T2 sequence (P05622 599-961 limits assumed): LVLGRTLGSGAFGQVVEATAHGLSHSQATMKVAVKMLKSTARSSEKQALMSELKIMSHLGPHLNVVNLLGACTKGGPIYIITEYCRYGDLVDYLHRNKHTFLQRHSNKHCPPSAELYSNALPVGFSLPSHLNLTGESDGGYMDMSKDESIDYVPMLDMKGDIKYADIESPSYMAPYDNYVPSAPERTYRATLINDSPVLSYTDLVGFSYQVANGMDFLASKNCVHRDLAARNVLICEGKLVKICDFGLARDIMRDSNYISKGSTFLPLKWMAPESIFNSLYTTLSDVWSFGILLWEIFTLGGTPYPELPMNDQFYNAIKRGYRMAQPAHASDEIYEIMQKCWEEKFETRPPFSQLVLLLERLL
T3 sequence (P11362 478-767 limits assumed): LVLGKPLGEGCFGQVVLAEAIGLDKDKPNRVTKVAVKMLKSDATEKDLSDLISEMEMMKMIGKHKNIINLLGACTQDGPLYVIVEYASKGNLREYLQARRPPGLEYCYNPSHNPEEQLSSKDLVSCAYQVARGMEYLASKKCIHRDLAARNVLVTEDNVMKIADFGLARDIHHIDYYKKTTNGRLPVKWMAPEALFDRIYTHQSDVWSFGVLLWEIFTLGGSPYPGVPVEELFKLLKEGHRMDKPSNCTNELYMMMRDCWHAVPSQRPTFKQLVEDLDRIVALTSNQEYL
T1 sequence (P12931 whole entry): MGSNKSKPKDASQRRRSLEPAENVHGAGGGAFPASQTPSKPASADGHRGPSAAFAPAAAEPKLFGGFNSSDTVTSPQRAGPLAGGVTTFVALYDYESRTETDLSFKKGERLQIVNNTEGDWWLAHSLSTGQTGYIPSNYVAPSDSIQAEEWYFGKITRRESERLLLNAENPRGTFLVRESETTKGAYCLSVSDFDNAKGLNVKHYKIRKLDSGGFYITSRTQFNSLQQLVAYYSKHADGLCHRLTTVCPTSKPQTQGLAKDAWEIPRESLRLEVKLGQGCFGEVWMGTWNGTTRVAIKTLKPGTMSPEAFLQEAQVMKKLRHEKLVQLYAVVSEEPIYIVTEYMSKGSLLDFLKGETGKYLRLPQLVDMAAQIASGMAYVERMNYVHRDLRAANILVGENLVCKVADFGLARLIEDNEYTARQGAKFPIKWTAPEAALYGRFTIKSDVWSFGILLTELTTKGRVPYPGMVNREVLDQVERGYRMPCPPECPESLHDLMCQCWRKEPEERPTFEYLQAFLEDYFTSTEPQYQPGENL

Structure (SMILES): Nc1ncc2cc(-c3cccc(Cl)c3Cl)c(N)nc2n1 [Example 83, 6-(2,3-Dichlorophenyl)-pyrido[2,3-d]pyrimidine-2,7-diamine]
- inhibition at 50 µM (C-src kinase): 53.6%
- IC50 [1]: 42.5 µM
- Inhibition of Protein Tyrosine Kinases, V-src, % Inhibition (V-src kinase): -9.8%
- IC50 [2]: 1.98 µM

Structure (SMILES): CCN(CC)CCCNc1ncc2cc(-c3c(C)cccc3C)c(N)nc2n1 [Example 114, N^2-(3-Diethylamino-propyl)-6-(2,6-dimethyl-phenyl)-pyrido[2,3-d]pyrimidine-2,7-diamine]
- IC50 (PDGF receptor): 15.9 µM
- IC50 [1]: 23.9 µM
- IC50 [2]: 19.2 µM

Structure (SMILES): Nc1ncc2cc(-c3cccnc3)c(N)nc2n1 [Example 107, 6-Pyridin-3-yl-pyrido[2,3-d]pyrimidine-2,7-diamine]
- inhibition at 50 µM (C-src kinase): 37%
- inhibition at 50 µM [1]: 20.5%
- Inhibition of Protein Tyrosine Kinases, V-src, % Inhibition (V-src kinase): 1.4%
- inhibition at 50 µM [2]: 37.2%

Structure (SMILES): CCN(CC)CCCNc1ncc2cc(-c3c(Cl)cccc3Cl)c(N)nc2n1 [Example 20, 7-Amino-6-(2,6-dichlorophenyl)-2-(3-diethylamino-propylamino)-pyrido[2,3-d]pyrimidine]
- IC50 (C-src kinase): 0.748 µM
- IC50 [1]: 46.1 µM
- Inhibition of Protein Tyrosine Kinases, V-src, % Inhibition (V-src kinase): 51.7%
- IC50 [2]: 2.38 µM

Structure (SMILES): Nc1ncc2cc(-c3ccccn3)c(N)nc2n1 [Example 111, 6-Pyridin-2-yl-pyrido[2,3-d]pyrimidine-2,7-diamine]
- inhibition at 50 µM (C-src kinase): 15.7%
- IC50 [1]: 23.3 µM
- Inhibition of Protein Tyrosine Kinases, V-src, % Inhibition (V-src kinase): -26.4%
- inhibition at 50 µM [2]: 47.7%

Structure (SMILES): Cc1cccc(-c2cc3cnc(N)nc3nc2N)c1C [Example 92, 6-(2,3-Dimethyl-phenyl)-pyrido[2,3-d]pyrimidine-2,7-diamine]
- inhibition at 50 µM (C-src kinase): 44.5%
- inhibition at 50 µM [1]: 33.1%
- Inhibition of Protein Tyrosine Kinases, V-src, % Inhibition (V-src kinase): -10.1%
- IC50 [2]: 2.01 µM

Structure (SMILES): COc1cccc(-c2cc3cnc(N)nc3nc2N)c1 [Example 102, 6-(3-Methoxy-phenyl)-pyrido[2,3-d]pyrimidine-2,7-diamine]
- inhibition at 50 µM (C-src kinase): 0.8%
- inhibition at 50 µM [1]: 44.4%
- Inhibition of Protein Tyrosine Kinases, V-src, % Inhibition (V-src kinase): -8.2%
- IC50 [2]: 3.11 µM

Structure (SMILES): Cc1cc(C)cc(-c2cc3cnc(N)nc3nc2NC(=O)NC(C)(C)C)c1 [Example 95, 1-[2-Amino-6-(3,5-dimethyl-phenyl)-pyrido[2,3-d]pyrimidin-7-yl]-3-tert-butyl-urea]
- inhibition at 50 µM (C-src kinase): 0%
- IC50 [1]: 41.6 µM
- IC50 [2]: 0.605 µM

Structure (SMILES): Nc1ncc2cc(-c3c(Cl)ccc(Cl)c3Cl)c(N)nc2n1 [Example 85, 6-(2,3,6-Trichloro-phenyl)-pyrido[2,3-d]pyrimidine-2,7-diamine]
- IC50 (C-src kinase): 4.46 µM
- IC50 [1]: 7.63 µM
- IC50 [2]: 0.129 µM

Structure (SMILES): CN1CCN(CCCNc2ncc3cc(-c4c(Cl)cccc4Cl)c(NC(=O)Nc4ccc(Br)cc4)nc3n2)CC1 [Example 44, 1-(4-Bromo-phenyl)-3-{6-(2,6-dichlorophenyl)-2-[3-(4-methyl-piperazin-1-yl)-propylamino]-pyrido[2,3-d]pyrimidin-7-yl}-urea]
- IC50 (C-src kinase): 0.023 µM
- IC50 [1]: 1.55 µM
- IC50 [2]: 0.196 µM

Structure (SMILES): CNc1nc2nc(N)ncc2cc1-c1ccc(OC)cc1 [Example 13, 6-(4-Methoxyphenyl)-N^7-methyl-pyrido[2,3-d]pyrimidine-2,7-diamine]
- inhibition at 50 µM (C-src kinase): 15.9%
- inhibition at 50 µM [1]: 18.2%
- Inhibition of Protein Tyrosine Kinases, V-src, % Inhibition (V-src kinase): 21.2%
- IC50 [2]: 30.3 µM

Structure (SMILES): CCNC(=O)Nc1nc2nc(NCCN(CC)CC)ncc2cc1-c1c(Cl)cccc1Cl [Example 67, 1-[6-(2,6-Dichlorophenyl)-2-(2-diethylamino-ethyl-amino)-pyrido[2,3-d]pyrimidin-7-yl]-3-ethyl-urea]
- IC50 (PDGF receptor): 9.42 µM
- IC50 (C-src kinase): 1.56 µM
- IC50 [2]: 1.39 µM

Structure (SMILES): CC(C)NC(=O)Nc1nc2nc(NCCCN3CCN(C)CC3)ncc2cc1-c1c(Cl)cccc1Cl [Example 38]
- IC50 (C-src kinase): 0.019 µM
- IC50 [1]: 0.36 µM
- IC50 [2]: 0.047 µM

Structure (SMILES): COc1ccccc1-c1cc2cnc(N)nc2nc1N [Example 100, 6-(2-Methoxy-phenyl)-pyrido[2,3-d]pyrimidine-2,7-diamine]
- inhibition at 50 µM (C-src kinase): 46.6%
- inhibition at 50 µM [1]: 22.3%
- Inhibition of Protein Tyrosine Kinases, V-src, % Inhibition (V-src kinase): 6.0%
- inhibition at 50 µM [2]: 27.1%

Structure (SMILES): Nc1ncc2cc(-c3c(Cl)cccc3Cl)c(N)nc2n1 [Example 1, 2,7-Diamino-6-(2,6-dichlorophenyl)-pyrido[2,3-d]pyrimidine]
- Inhibition of Protein Tyrosine Kinases, V-src, % Inhibition (V-src kinase): -2.4%
- IC50 [2]: 2.99 µM

Structure (SMILES): CC(C)(C)NC(=O)Nc1nc2nc(N)ncc2cc1-c1cccnc1 [Example 108, 1-(2-Amino-6-pyridin-3-yl-pyrido[2,3-d]pyrimidin-7-yl)-3-tert-butyl-urea]
- IC50 (C-src kinase): 5.66 µM
- IC50 [1]: 13.7 µM
- IC50 [2]: 4.48 µM

Structure (SMILES): Nc1ncc2cc(-c3ccccc3)c(N)nc2n1 [Example 81, 6-Phenyl-pyrido[2,3-d]pyrimidine-2,7-diamine]
- inhibition at 50 µM (C-src kinase): 67.5%
- Inhibition of Protein Tyrosine Kinases, V-src, % Inhibition (V-src kinase): -20.3%

Structure (SMILES): CCN(CC)CCCNc1ncc2cc(-c3c(Cl)cccc3Cl)c(N=CN(C)C)nc2n1 [Example 78, N'-[6-(2,6-Dichlorophenyl)-2-{3-(diethylamino)propyl-amino}pyrido[2,3-d]pyrimidin-7-yl]-N,N-dimethylformamidine]
- IC50 (C-src kinase): 3.99 µM
- IC50 [1]: 32.9 µM
- IC50 [2]: 4.01 µM

Structure (SMILES): CN(C)CC(C)(C)CNc1ncc2cc(-c3c(Cl)cccc3Cl)c(NC(=O)NC(C)(C)C)nc2n1 [Example 30, 1-tert-Butyl-3-[6-(2,6-dichlorophenyl)-2-[3-dimethylamino-2,2-dimethyl-propylamino)-pyrido[2,3-d]pyrimidin-7-yl]-urea]
- inhibition at 50 µM (C-src kinase): 46.8%
- IC50 [1]: 1.78 µM
- IC50 [2]: 0.264 µM

Structure (SMILES): CN1CCN(CCCNc2ncc3cc(-c4c(Cl)cccc4Cl)c(N)nc3n2)CC1 [Example 36, N^2-[3-(4-methyl-piperazin-1-yl)-propyl]-6-(2,6-dichlorophenyl)-pyrido[2,3-d]pyrimidine-2,7-diamine]
- IC50 (C-src kinase): 0.184 µM
- IC50 [1]: 22.9 µM
- IC50 [2]: 0.523 µM
